ChEMBL document CHEMBL1134270, “Optimization of 4-phenylamino-3-quinolinecarbonitriles as potent inhibitors of Src kinase activity” (J Med Chem, 2001)

What was measured:
[1] = molecular target: Proto-oncogene tyrosine-protein kinase Src (Homo sapiens, UniProt P12931); experiment: Inhibition against Src kinase
Rattus norvegicus = species on record: Rattus norvegicus; experiment: Ability to inhibit the proliferation of c-Src transformed rat fibroblasts growing in suspension; assay type: functional
[2] = plasma concentration of compound at four hour after the of intraperitoneal administration of 50 mg/kg; assay type: ADME, organism-based; design: dose 50 mg/kg, route intraperitoneal; settings: ip
[3] = plasma concentration of compound at one hour after the of intraperitoneal administration of 50 mg/kg; assay type: ADME, organism-based; design: dose 50 mg/kg, route intraperitoneal; settings: ip
[4] = plasma concentration of compound at four hours after the of intraperitoneal administration of 50 mg/kg; assay type: ADME, organism-based; design: dose 50 mg/kg, route intraperitoneal; settings: ip
HT-29 = experiment: Inhibition of HT-29 cell monolayer proliferation at 5 uM; assay type: functional, cell-based; settings: Homo sapiens
[5] = molecular target: Platelet-derived growth factor receptor (PDGFr) (Rattus norvegicus, UniProt P20786+Q05030); experiment: Inhibition of PDGF receptor transfected rat1A cell proliferation; assay type: functional

Chain of Proto-oncogene tyrosine-protein kinase Src (P12931 2-536 limits assumed): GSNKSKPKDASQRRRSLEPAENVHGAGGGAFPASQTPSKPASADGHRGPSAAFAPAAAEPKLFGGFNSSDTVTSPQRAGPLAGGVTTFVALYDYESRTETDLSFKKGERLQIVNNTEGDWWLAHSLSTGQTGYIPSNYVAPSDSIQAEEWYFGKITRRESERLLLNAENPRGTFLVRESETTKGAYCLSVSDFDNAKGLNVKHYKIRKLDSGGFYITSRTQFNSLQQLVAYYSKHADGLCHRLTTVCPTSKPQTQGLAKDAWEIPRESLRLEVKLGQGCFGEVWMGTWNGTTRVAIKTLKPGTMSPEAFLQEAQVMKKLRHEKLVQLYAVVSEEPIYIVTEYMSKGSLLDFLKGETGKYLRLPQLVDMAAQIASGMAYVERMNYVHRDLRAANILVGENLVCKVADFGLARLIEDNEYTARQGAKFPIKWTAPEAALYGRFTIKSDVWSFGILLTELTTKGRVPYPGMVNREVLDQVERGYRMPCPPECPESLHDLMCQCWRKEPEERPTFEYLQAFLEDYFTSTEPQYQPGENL

Q: Which IC50 [1] does the source give for `COc1cc(Nc2c(C#N)cnc3cc(OC)c(OC)cc23)c(Cl)cc1Cl` here?
A: 4.3 nM

Q: With `COc1cc(Nc2c(C#N)cnc3cc(OC)c(OC)cc23)c(C)cc1Cl` as the compound, how does the IC50 [1] read?
A: 4 nM

Q: Which IC50 (Rattus norvegicus) does the source give for `COc1cc(Nc2c(C#N)cnc3cc(OCCCN4CCNCC4)c(OC)cc23)c(Cl)cc1Cl` here?
A: 1700 nM

Q: What about the IC50 [1] of the same compound?
A: 1.1 nM

Q: Which IC50 (Rattus norvegicus) does the source give for `COc1cc(Nc2c(C#N)cnc3cc(OC)c(OCCCN4CCOCC4)cc23)c(Cl)cc1Cl` here?
A: 1200 nM

Q: And the IC50 [1]?
A: 28 nM

Q: Which results are given for `COc1cc(Nc2c(C#N)cnc3cc(OCCCN4CCCN(C)CC4)c(OC)cc23)c(Cl)cc1Cl`?
A: IC50 (Rattus norvegicus): 350 nM; IC50 [1]: 1.4 nM

Q: Which IC50 [1] does the source give for `COc1ccc(Cl)c(Nc2c(C#N)cnc3cc(OC)c(OC)cc23)c1` here?
A: 10 nM

Q: What does the source list for `COc1cc(Nc2c(C#N)cnc3cc(OCCCCN4CCOCC4)c(OC)cc23)c(Cl)cc1Cl`?
A: IC50 (Rattus norvegicus): 330 nM; IC50 [1]: 1.3 nM

Q: With `COc1cc(Nc2ccnc3cc(OC)c(OC)cc23)c(Cl)cc1Cl` as the compound, how does the IC50 [1] read?
A: 81 nM

Q: Which IC50 (Rattus norvegicus) does the source give for `COc1cc(Nc2c(C#N)cnc3cc(OCCCN4CCOCC4)c(OC)cc23)c(Br)cc1Cl` here?
A: 71 nM

Q: And the IC50 [1]?
A: 0.95 nM

Q: For `COc1ccc(Cl)c(Nc2c(C#N)cnc3cc(OCCCN4CCOCC4)c(OC)cc23)c1`, which IC50 (Rattus norvegicus) is on record?
A: 150 nM

Q: And the IC50 [1]?
A: 1.6 nM

Q: With `COc1cc(Nc2c(C#N)cnc3cc(OC)c(OC)cc23)c(Cl)cc1C` as the compound, how does the IC50 [1] read?
A: 2.9 nM

Q: Which IC50 [1] does the source give for `CCCOc1cc(Nc2c(C#N)cnc3cc(OC)c(OC)cc23)c(Cl)cc1Cl` here?
A: > 5000 nM

Q: With `COc1cc(Nc2ncnc3cc(OC)c(OC)cc23)c(Cl)cc1Cl` as the compound, how does the IC50 [1] read?
A: 390 nM

Q: For `CCCN1CCN(CCCOc2cc3ncc(C#N)c(Nc4cc(OC)c(Cl)cc4Cl)c3cc2OC)CC1`, which IC50 (Rattus norvegicus) is on record?
A: 160 nM

Q: Which IC50 (Rattus norvegicus) does the source give for `COc1cc(Nc2c(C#N)cnc3cc(OCCCN4CCOCC4)c(OC)cc23)c(Cl)cc1C` here?
A: 100 nM

Q: What about the IC50 [1] of the same compound?
A: 1.1 nM

Q: With `COc1cc(Nc2c(C#N)cnc3cc(OC)c(OC)cc23)c(C)cc1C` as the compound, how does the IC50 [1] read?
A: 4.6 nM

Q: Which IC50 [1] does the source give for `COc1cc(Nc2c(C#N)cnc3cc(OC)c(OC)cc23)ccc1Cl` here?
A: 120 nM

Q: With `COc1cc(Nc2c(C#N)cnc3cc(OCCCn4nccn4)c(OC)cc23)c(Cl)cc1Cl` as the compound, how does the IC50 (Rattus norvegicus) read?
A: 1900 nM

Q: What about the IC50 [1] of the same compound?
A: 9.3 nM

Q: For `COc1cc(Nc2c(C#N)cnc3cc(OCCCN(C)CCN(C)C)c(OC)cc23)c(Cl)cc1Cl`, which IC50 (Rattus norvegicus) is on record?
A: 650 nM

Q: And the IC50 [1]?
A: 2.3 nM

Q: For `COc1cc(Nc2c(C#N)cnc3cc(OCCCn4ccnn4)c(OC)cc23)c(Cl)cc1Cl`, which IC50 (Rattus norvegicus) is on record?
A: 920 nM

Q: What about the concentration at 4 h [2] of the same compound?
A: 300 ng/mL

Q: And the IC50 [1]?
A: 1.9 nM

Q: What about the concentration at 1 h [3] of the same compound?
A: 1300 ng/mL

Q: Which IC50 (Rattus norvegicus) does the source give for `COc1cc(Nc2c(C#N)cnc3cc(OCCCCCN4CCOCC4)c(OC)cc23)c(Cl)cc1Cl` here?
A: 320 nM

Q: And the IC50 [1]?
A: 2.5 nM

Q: For `CCN1CCN(CCCOc2cc3ncc(C#N)c(Nc4cc(OC)c(Cl)cc4Cl)c3cc2OC)CC1`, which IC50 (Rattus norvegicus) is on record?
A: 130 nM

Q: With `COc1cc(Nc2c(C#N)cnc3cc(OCCCN4CCOCC4)c(OC)cc23)c(C)cc1C` as the compound, how does the IC50 (Rattus norvegicus) read?
A: 160 nM

Q: And the IC50 [1]?
A: 1.7 nM

Q: For `COc1cc(Nc2c(C#N)cnc3cc(OCCCN4CCOCC4)c(OC)cc23)c(Cl)cc1Cl`, which IC50 (Rattus norvegicus) is on record?
A: 140 nM

Q: And the IC50 [1]?
A: 0.8 nM

Q: And the concentration at 1 h [3]?
A: 100 ng/mL

Q: What about the concentration at 4 h [4] of the same compound?
A: 100 ng/mL

Q: With `COc1cc(Nc2c(C#N)cnc3cc(OC)c(OC)cc23)c(F)cc1Cl` as the compound, how does the IC50 [1] read?
A: 66 nM

Q: Which results are given for `COc1cc(Nc2c(C#N)cnc3cc(OCCCN4CCCCC4)c(OC)cc23)c(Cl)cc1Cl`?
A: IC50 (Rattus norvegicus): 150 nM; IC50 [1]: 1.2 nM

Q: For `COc1cc(Nc2c(C#N)cnc3cc(OCCCN4CCN(CCO)CC4)c(OC)cc23)c(Cl)cc1Cl`, which IC50 (Rattus norvegicus) is on record?
A: 610 nM

Q: What about the IC50 [1] of the same compound?
A: 0.76 nM

Q: With `CCOc1cc(Nc2c(C#N)cnc3cc(OC)c(OC)cc23)c(Cl)cc1C` as the compound, how does the IC50 [1] read?
A: > 5000 nM

Q: With `COc1cc2ncc(C#N)c(Nc3cc(O)c(Cl)cc3Cl)c2cc1OC` as the compound, how does the IC50 [1] read?
A: 190 nM

Q: For `COc1cc(Nc2c(C#N)cnc3cc(OC)c(OC)cc23)c(Br)cc1Cl`, which IC50 [1] is on record?
A: 3 nM

Q: What does the source list for `COc1cc(Nc2c(C#N)cnc3cc(OCCN4CCOCC4)c(OC)cc23)c(Cl)cc1Cl`?
A: IC50 (Rattus norvegicus): 190 nM; IC50 [1]: 2.3 nM

Q: Which IC50 [1] does the source give for `CCOc1cc(Nc2c(C#N)cnc3cc(OC)c(OC)cc23)c(Cl)cc1Cl` here?
A: 1200 nM

Q: What does the source list for `COc1cc(Nc2c(C#N)cnc3cc(OCCCNCCN4CCOCC4)c(OC)cc23)c(Cl)cc1Cl`?
A: IC50 (Rattus norvegicus): 1200 nM; IC50 [1]: 3 nM

Q: Which results are given for `COc1cc(Nc2c(C#N)cnc3cc(OCCCN4CC(C)N(C)C(C)C4)c(OC)cc23)c(Cl)cc1Cl` (stereo not drawn)?
A: IC50 (Rattus norvegicus): 220 nM; IC50 [1]: 1.4 nM

Q: Which IC50 (Rattus norvegicus) does the source give for `COc1cc(Nc2c(C#N)cnc3cc(OCCCn4ccnc4)c(OC)cc23)c(Cl)cc1Cl` here?
A: 1400 nM

Q: And the IC50 [1]?
A: 2.1 nM

Q: Which IC50 (Rattus norvegicus) does the source give for `COc1cc(Nc2c(C#N)cnc3cc(OCCCN4CCOCC4)c(OC)cc23)c(C)cc1Cl` here?
A: 150 nM

Q: What about the IC50 [1] of the same compound?
A: 1.2 nM

Q: Which results are given for `COc1cc(Nc2c(C#N)cnc3cc(OCCCN4CCC(O)CC4)c(OC)cc23)c(Cl)cc1Cl`?
A: IC50 (Rattus norvegicus): 840 nM; IC50 [1]: 0.64 nM

Q: For `COc1cc2c(Nc3ccc(Cl)cc3Cl)c(C#N)cnc2cc1OCCCN1CCOCC1`, which IC50 (Rattus norvegicus) is on record?
A: 940 nM

Q: Which IC50 (HT-29) does the source give for `COc1cc(Nc2c(C#N)cnc3cc(OCCCN4CCN(C)CC4)c(OC)cc23)c(Cl)cc1Cl` [BOSUTINIB] here?
A: 5 µM

Q: What about the IC50 (Rattus norvegicus) of the same compound?
A: 100 nM

Q: What about the concentration at 4 h [2] of the same compound?
A: 900 ng/mL

Q: And the concentration at 1 h [3]?
A: 3000 ng/mL

Q: What about the IC50 [5] of the same compound?
A: 4 µM
